The values that follow come from patent US20050250799A1, “Protease inhibitors for treatment of wrinkles” (priority 2004, published 2005).

Data set [1] deals with mice ears. The data set is described as follows: Example 1: effect on ear thickness (skin irritancy). Particulars: for Left ear thickness (mean): 10 μl on left ear. The class given is in vivo, mice (FVB strain). The method, then:
Control thickness of mice ears (FVB strain, male, 7 weeks of age, n=3/group) was measured with a thickness gauge (Mitsutoyo Corp.). After measuring the thickness of both ears, 10 μl of ucf-101 solution (1.0% or 0.1%) was applied to the left ear and 10 μl of solvent was applied to the right ear. Ear thickness was measured for three consecutive days after administration.

In data set [2] the test system is UVB-induced vessel dilation. The data set is described as follows: Example 3: dermal blood vessel area (CD31 staining) after UVB. The class given is in vivo, hairless Skh-1 mice. Particulars: UVB + 1% in DMSO, 100 μl on back skin three times weekly, 10 weeks; dermis. The method, then:
Five groups of mice (7-week-old female hairless Skh-1 mice, n=3/group) were used: group 1: UVB+1% ucf-101 in DMSO; group 2: UVB+DMSO control; group 3: UVB+0.1% ucf-101 in acetone; group 4: UVB+acetone control; group 5: no UVB control.
Groups 1, 2, 3 and 4 were exposed to UVB irradiation using fluorescent lamps (Southern New England Ultraviolet) to deliver 0.35 mW/cm^2 at the dorsal skin surface of the mice. After irradiation, the indicated samples (100 μl each) for each group were applied to the back skin. This procedure was repeated three times weekly for ten weeks, to simulate chronic UVB exposure. […] The total cumulative dose was 6.54 J/cm^2 UVB.
After 10 weeks, skin wrinkling was evaluated using five categories (0: no wrinkle; 1: slight wrinkle; 2: clear wrinkle; 3: strong wrinkle; 4: severe wrinkle). Mice of group 1 and group 2 were sacrificed and back skin samples were snap-frozen in liquid nitrogen. Immunohistochemical staining was performed on 7-micrometer frozen sections using a monoclonal rat anti-mouse CD31 antibody (BD Pharmingen). Representative sections were obtained from UVB irradiated mice and were analyzed using a Nikon E-600 microscope. Images were captured with a Spot digital camera (Diagnostic Instruments), and morphometric analyses were performed using the IP-LAB software. Areas occupied by blood vessels were determined in the dermis.

Data set [3] has as its system mice ears. Nature of the data set: Example 4: effects of test samples on ear thickness. Particulars: 0.1% in 25% DMSO + 75% ethanol, 10 μl on days 0, 1, 2. The class given is in vivo, mice (FVB strain). As to the method:
Control thickness of mice ears (FVB strain, female, 7 weeks of age, n=3/group) was measured with a thickness gauge (Mitsutoyo Corp.) on day 0. After measuring the thickness of both ears, 10 μl of test sample solution was applied to the left ear and 10 μl of solvent was applied to the right ear. After 24 hours (day 1), ear thickness was measured and a second dose administered (left ear: test solution, right ear: solvent). After a second 24 hours (day 2), ear thickness was measured and a third dose administered (left ear: test solution, right ear: solvent).

The next data set deals with back skin of mice. Nature of the data set: Example 5: skin irritation score on back skin. In kind it is in vivo, mice (FVB strain). Particulars: 0.1% in 25% DMSO + 75% ethanol, 5 μl on back skin, score 0 (no erythema) to 4. The method, then:
The hair of the back skin of mice (FVB strain, female, 7 weeks of age, n=3/group) was clipped by an electric clipper on day 0. 5 μl of test sample solution (˜1 cm diameter) was applied on the back skin. After 24 hours (day 1), skin irritation was measured on the basis of a scoring system (0: no erythema; 1: very slight erythema; 2: well-defined erythema; 3: moderate erythema; 4: several erythema and edema) and a second dose administered. After a second 24 hours (day 2), skin irritation was measured and a third dose administered. After a third 24 hours (day 3), skin irritation was again measured.

In data set [4] the test system is UVB-induced wrinkle formation. The data set is described as follows: Example 6: UVB-induced skin wrinkling. The class given is in vivo, Skh-1 hairless mice. Particulars: UVB + 0.1% in 25% DMSO + 75% ethanol, 100 μl on back skin three times weekly, 10 weeks; category 0 (no wrinkle) to 4 (severe wrinkle).
Data set [5] concerns UVB-induced vessel dilation. The data set is described as follows: Example 6: dermal blood vessel area (CD31 staining) after UVB. Particulars: UVB + 0.1% in 25% DMSO + 75% ethanol, 100 μl on back skin three times weekly, 10 weeks; dermis. The class given is in vivo, Skh-1 hairless mice.
Data set [6] concerns the target T1, Omi/HtrA2 (His-Omi 134-458) (Homo sapiens, UniProt O43464).
T1 construct: His
T1 sequence (O43464 134-458): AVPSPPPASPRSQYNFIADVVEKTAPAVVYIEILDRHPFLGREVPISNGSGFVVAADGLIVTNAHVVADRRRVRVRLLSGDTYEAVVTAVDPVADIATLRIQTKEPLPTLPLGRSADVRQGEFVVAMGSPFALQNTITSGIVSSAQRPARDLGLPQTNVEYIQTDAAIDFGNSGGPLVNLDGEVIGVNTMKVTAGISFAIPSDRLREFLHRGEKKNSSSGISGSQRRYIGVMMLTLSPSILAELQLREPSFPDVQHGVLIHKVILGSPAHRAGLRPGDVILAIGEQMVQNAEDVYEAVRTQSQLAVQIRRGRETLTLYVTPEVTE
Particulars: cited from earlier work.

Data set [7] has as its system various other serine proteases. Particulars: various other serine proteases tested; cited from earlier work.
Data set [8] relates to caspase-9 (−/−) null fibroblasts. Particulars: cited from earlier work.

Take `O=C1C(=Cc2ccc(-c3ccccc3[N+](=O)[O-])o2)C(=O)N(c2ccccc2)C(=S)N1c1ccccc1` [Ucf-101]: the “Left ear thickness (mean)” value in the data set on mice ears [1] (0.1% in acetone, day 0 (before application)) is recorded as 29.0 ×0.01 mm; in the data set on mice ears [1] (0.1% in acetone, day 1), 30.0 ×0.01 mm; in the data set on mice ears [1] (0.1% in acetone, day 2), 29.3 ×0.01 mm; with mice ears [1] (0.1% in acetone, day 3) it was 29.0 ×0.01 mm; in the data set on mice ears [1] (1% in DMSO, day 0 (before application)), 28.0 ×0.01 mm; in the data set with mice ears [1] (1% in DMSO, day 1), 28.7 ×0.01 mm. In addition, the “Left ear thickness (mean)” value with mice ears [1] (1% in DMSO, day 2) is listed as 28.7 ×0.01 mm; in the data set with mice ears [1] (1% in DMSO, day 3), 28.3 ×0.01 mm; in the data set with mice ears [3] (day 0 (before application)), 25.7 ×0.01 mm; with mice ears [3] (day 1), 26.3 ×0.01 mm; in the data set on mice ears [3] (day 2) it was 27.3 ×0.01 mm; in the data set with mice ears [3] (day 3), 28.3 ×0.01 mm. Moreover, the “irritancy (ear thickness compared to solvent alone)” value with mice ears [1] (1% in DMSO or 0.1% in acetone) was “not an irritant”. Further, the “Percent of vessel area (mean)” value in [2] is recorded as 7.1%; in [5], 4.7%. In addition, the skin irritation score in the data set with back skin of mice (day 0), in the data set with back skin of mice (day 1), with back skin of mice (day 2) and with back skin of mice (day 3) was 0 in each case. Also, the “Wrinkle category (mean)” value in data set [4] is given as 1.00. Further, the results for the concentration for half-maximal inhibition (IC50) in [6] and in data set [7] were 9.5 µM and 200 µM, respectively. Also, in data set [8], the “block of Omi/HtrA2 induced cell death” value is listed as “block Omi/HtrA2 induced cell death”.
